# Measured values: the SangsterLogP compilation
# Test: method code SF-HPLC, from DOI: 10.1016/j.bmc.2003.11.030, PMID: 14759727
# Conditions: pH 7.4
row,Compound,logD
1,Clc1ccc2[nH]c(NCCc3c[nH]cn3)nc2c1,2.31
2,O=[N+]([O-])c1ccc2[nH]c(NCCc3c[nH]cn3)nc2c1,1.81

# The next lines start with the values.
row,logD,Compound
1,3.03,FC(F)(F)c1ccc2[nH]c(NCCCc3c[nH]cn3)nc2c1
2,2.82,FC(F)(F)c1ccc2[nH]c(NCCc3c[nH]cn3)nc2c1
3,2.28,CCOC(=O)c1ccc2[nH]c(NCCc3c[nH]cn3)nc2c1

# Same assay, conditions: pH 11.0
row,Compound,logD
1,c1nc(CCNc2nc3cc4c(cc3[nH]2)OCO4)c[nH]1,1.44
2,CNC(=O)c1ccc2[nH]c(NCCc3c[nH]cn3)nc2c1,0.48
3,Nc1ccc2[nH]c(NCCc3c[nH]cn3)nc2c1,0.01
4,c1ccc2[nH]c(NCCCc3cnc[nH]3)nc2c1,1.78
5,COc1ccc2[nH]c(NCCc3c[nH]cn3)nc2c1,1.43

# More lines, now with the values ahead:
row,logD,Compound
1,3.64,CCCCc1ccc2[nH]c(NCCc3c[nH]cn3)nc2c1
2,0.17,Nc1ccc2[nH]c(NCCCc3c[nH]cn3)nc2c1
3,3.93,CCCCc1ccc2[nH]c(NCCCc3c[nH]cn3)nc2c1
4,2.26,Cc1ccc2[nH]c(NCCCc3c[nH]cn3)nc2c1
5,1.49,c1ccc2[nH]c(NCCc3c[nH]cn3)nc2c1
